For series [1], the system named is model tumors grown in mice. As to the kind of experiment: Tumor growth delay with radiation, model tumors pooled. In kind it is in vivo. Particulars: papaverine 30-60 minutes prior to radiation. As to the method: Tumor Growth kinetics. 2×10^6 EO771 or 5×10^6 A549 cells were injected s.c. into the flanks of 6-week old female immunocompetent C57/B6 (EO771) or immunocompromised nu/nu (A549) mice. Caliper measurements of opposing diameter were used to calculate the tumor volumes. Upon reaching […], the tumors were visualized by cone beam CT and treatment plans calculated using SARRP software. X-rays were delivered with a single beam delivering 5 Gy using the Small Animal Research Radiation Platform (SARRP, Xstrahl). Tumor volumes were measured until the post treatment volume increased 3-fold. Error bars represent standard deviation.
Both models of transplanted tumors that were used for the oxygenation experiments of papaverine's effect on radiation response in vivo were investigated. The murine breast cancer line EO771 that is syngeneic with the BL6 strain of mice was used and transplanted it orthotopically into the mammary fat pad of immune-competent mice. Also used was the human A549 lung adenocarcinoma line that was transplanted into the flank of immune-deficient mice. The breast cancers grew to approximately 150 mm^3 and were then randomized to receive either no treatment, a single dose of either 5 Gy, or papaverine at 2 mg/kg followed 30-40 minutes later by 5 Gy. […]

Another series has as its system mitochondrial function. The settings on record: cited from earlier work.
In another series the test system is A549 cells. As to the kind of experiment: Trypan blue cell viability of A549 cells in normoxia and hypoxia. Particulars: 100 μM papaverine, 72 h. It counts as cell-based, Human. As to the method:
FIGS. 2A-2D are OCR measurements and cell viability assessments. FIG. 2A-2B are representative of OCR measurement in competition assay between PPV and complex I inhibitors piericidin A (FIG. 2A) and capsaicin (FIG. 2B). Values represent the means+−SD. FIGS. 2C-2D show trypan blue cell viability assessment (of n=3) of A549 cells treated with 100 μM papaverine or 1 μM rotenone in normoxia (FIG. 2C) and hypoxia (FIG. 2D) (T=72 h). Bar charts represent mean of viable cells in duplicates+−standard deviation.
Experimental: Cell lines. All cell lines were purchased from the American Type Culture Collection (ATCC) and grown DMEM (Corning) supplemented with 10% FBS (Seradigm) and 1% Penicillin/Streptomycin (Fisher Bioreagents) at 37° C. in 5% CO2. Cells were treated with inhibitors papaverine hydrochloride (Sigma-Aldrich), rotenone (Sigma-Aldrich), piericidin A (Santa Cruz), capsaicin (Sigma-Aldrich), antimycin A (Sigma-Aldrich) and succinic acid disodium salt (Sigma-Aldrich). Cell viability was assessed by trypan blue exclusion.

The next series deals with C57BL/6 mice. As to the kind of experiment: Acute toxicity, IV to isoflurane-anesthetized mice. How it is done:
Bar graphs represent the mean area covered by pimonidazole-positive cells evaluated from 20 images per animal+−standard error of the mean. P value was calculated against control with two-tailed two-sample t test. […] Mean volumes+−SEM. P values were calculated against XRT with two-tailed two-sample t test. *P<0.05; **P<0.01; ***P<0.001; ****P<0.0001; n.s., not significant.
Reducing any possible adverse effects of PPV given to cancer patients if it is being used as a radiosensitizer are needed. PDE10A inhibition can cause systemic vascular effects which can result in a drop in blood pressure and increase in heart rate as vessels become more compliant. This acute drop in blood pressure produces a physiological compensation where the individual's heart rate and breathing rate rise to maintain tissue perfusion. If the effect on systemic vasculature was too great, this could lead to cardiovascular collapse and rapid death. Acute toxicity of PPV, SMV23 and SMV32 given IV to mice under anesthesia with 2% isoflurane was determined. Isoflurane delivered in medical air was used so that the effects on tumor oxygenation was reduced, although isoflurane can depress respiration and is typically given in 100% oxygen.

The test system of the next series is mitochondrial complex 1. Nature of the series: Seahorse OCR inhibition of PPV derivatives, normalized to PPV. It counts as cell-based. How it is done: FIGS. 7A-7D show OCR and cellular toxicity data. […]. Bars represent mean OCR and PDE10 inhibitory activities from at least 5 (OCR) or 3 (PDE) replicates. All experiments were repeated at least twice. […] Values are mean+−SEM.
Seahorse analysis of the OCR. Oxygen consumption rate (OCR) was measured using Seahorse XF96 Flux Analyzer (Agilent Technologies). The cells were seeded to attach overnight, wells were washed with pre-warmed XF Calibrant (Agilent Technologies) and the replaced with unbuffered Assay Medium (pH 7.4, 5 mM glucose, 1 mM L-glutamine). The plates were incubated at 37° C. in a CO2-free incubator for 2 hours prior to assay. For succinate rescue assay, cells were permeabilized using XF Plasma Membrane Permeabilizer Reagent (XF PMP, Agilent Technologies) according to the manufacturer's instructions. The OCR rate was measured in 1× Mitochondrial Assay Solution (MAS) (70 mM sucrose, 220 mM mannitol, 10 mM KH2PO4, 5 mM MgCl2, 2 mM Hepes, 0.6% (w/v) fatty acid-free BSA and 1 mM EGTA; pH 7.4). After baseline oxygenation was established, 1 μM rotenone or 10 μM PPV was injected at time A, followed by 5 mM succinate at time B. Error bars represent standard deviation. For the washout experiment, EO771 cells were seeded overnight, then treated with 10 μM PPV or 1 μM rotenone 3 hours prior to OCR measurement. Media was replaced 1 and 2 hours before measurement and OCR reported.
Because PPV's effect on mitochondrial function is independent of cAMP levels it was reasoned that there are two activities in PPV, one inhibiting complex 1 and one inhibiting PDE10A that may reside in different parts of the molecule. The structure activity relationship of PPV relative to two assays was assessed: inhibition of cellular OCR by Seahorse, and inhibition of PDE10A by purified enzyme activity in multiwell plate (PDE10A activity assay kit, BPS Bioscience). Because PPV can compete with rotenone as complex 1 inhibitors, it was reasoned that they may be binding the same site and therefore the structures would be similar relative to the mitochondrial binding target. […] Because the top was a planar structure similar to that of rotenone, and they compete with each other for the same binding pocket on complex 1 (FIG. 10) the lower portion of the molecule and how it may resemble rotenone were investigated in more detail. It was established that flexible linkage was preferred for mitochondrial activity and bulky adducts to the lower benzene ring may block it (FIG. 7C). […] These lead compounds were synthesized from commercial precursors and purified on silica gel column. Structures were confirmed by ^1H NMR and found to be >95% pure by HPLC.

Molecules are shown by their SMILES.

`COc1ccc(Cc2nccc3cc(OC)c(OC)cc23)cc1OC` [PPV, papaverine]: the “increase of relative growth delay of a single dose of radiation” value is given as 2-4 fold in series [1] and 1.9-3.9 fold in series [1] (listed as papaverine). Also, in the series on mitochondrial function, the “growth of cells in media containing only galactose” value is “slow the growth of cells”. Besides, the “cellular toxicity in normoxia or hypoxia in vitro” value with A549 cells is listed as “no cellular toxicity”. The “time to death after delivery” value in the series with C57BL/6 mice (6 mg/kg IV bolus) was not above 5 min. Also, the Survivors in the series on C57BL/6 mice (6 mg/kg IV, 2% isoflurane in medical air) is listed as 0/3. For the same molecule, the “acute toxicity” value with C57BL/6 mice (rapid 6 mg/kg IV bolus, isoflurane-anesthetized mice) was “toxic, with significant gasping of mice, convulsions and death”.
Take `COc1cc2ccnc(Cc3cccc4ccccc34)c2cc1OC` [SMV-32]: the “activity in cellular OCR assay” value in the series on mitochondrial complex 1 (Seahorse) is “approaching that of rotenone”. Also, the “Inhibitory activity OCR % of PPV” value with mitochondrial complex 1 (Seahorse, OCR inhibition at 10 μM concentration, normalized to PPV) is reported as 159.3 % of PPV. Moreover, in the series with mitochondrial complex 1 (compared to PPV), the “complex 1 activity compared to PPV” value is on record as 160%.

These data come from patent US20210163453A1, “DERIVATIVES OF PAPAVERINE THAT ARE EFFECTIVE HYPOXIC TUMOR RADIOSENSITIZERS” (Ohio State Innovation Foundation, priority 2018, published 2021).
